Data reported in paper PMC10850047, “Exploring the impact of PEGylation on pharmacokinetics: a size-dependent effect of polyethylene glycol on prostate-specific membrane antigen inhibitors” (EJNMMI Research, 2024).
Where two headings read alike, the source gives them in different places.

Legend:
LNCaP tumors = experiment: Micro-PET/CT blocking experiment with 2-PMPA, LNCaP tumor model; type: in vivo, mice; conditions: 40 nmol 2-PMPA 30 min before radioligand, static scan 60 min later
Method: (§1) To perform imaging studies, the male mice bearing LNCaP tumors were injected with the corresponding radioligand (~ 2.5 MBq; 100 μL) via their tail veins. The micro-PET/CT scans (Inveon PET, Siemens) were conducted at 10, 30, 60, and 120 min after injection. The mice were anesthetized and maintained under 2% isoflurane in oxygen at a flow rate of 2 L/min during the 2-h imaging study. First, a 10 min static PET imaging acquisition was carried out, followed by a 10 min CT scan for localization and attenuation correction. Data analysis was performed using Inveon Research Workplace software. For PC3-PIP tumor model, the imaging studies were performed with micro-PET/SPECT/CT (Inliview-3000B, Novel Medical). Data analysis was performed using Nmsoft-Al ws v1.7–1 software.
(§2) To evaluate the specificity of radioligands, blocking experiments were performed. In brief, 40 nmol of the PSMA inhibitor 2-PMPA was administered, followed by the injection of approximately 2.6 MBq of radioligands after 30 min. Then a static scan of micro-PET/CT was performed 60 min later.

PC3-PIP tumors = experiment: Micro-PET/CT blocking experiment with 2-PMPA, PC3-PIP tumor model; type: in vivo, mice; conditions: identical methodology
Method: as §1, §2

[1] = tested on: LNCaP tumor-bearing NOD/SCID mice; conditions: mouse, in vivo
[2] = tested on: PC3-PIP tumor-bearing balb/c-nu mice; experiment: Biodistribution in PC3-PIP tumor model; type: in vivo; conditions: mean ± SD (n=5)
Method: All animal experiments were performed with the approval of the institutional animal ethics committee. Male NOD/SCID mice (5 − 6 weeks old) implanted with LNCaP cells were used for imaging and biodistribution experiments as previously described. The mice were imaged or used in biodistribution studies once the tumor grew to 8 − 10 mm in diameter over a period of 4 − 5 weeks. At the same time, male balb/c-nu mice (5 − 6 weeks old) implanted with PC3-PIP cells were used as an alternative tumor model for imaging and biodistribution experiments.
To conduct biodistribution studies, male mice bearing LNCaP or PC3-PIP tumors with an average body weight of approximately 20 ± 5 g and a tumor diameter of 8 − 10 mm were administered a bolus injection of 2.5 MBq of the corresponding radioligand via the tail vein. After 30, 60, and 120 min, the mice were anesthetized with isoflurane and subsequently euthanized by CO2 asphyxiation. Blood was drawn, and the organs of interest were promptly harvested, blotted dry, and weighed. The radioactivity of the collected mouse organs was measured and expressed as the percentage of the injected dose per gram of tissue (%ID/g). Each group consisted of at least five mice.

PSMA = target: T1, PSMA (Homo sapiens, UniProt Q04609); experiment: Competitive cell binding assay against [68Ga]Ga-PSMA-11 on LNCaP cells; conditions: competition with [68Ga]Ga-PSMA-11, natGa-labeled standards, 1 h 37 °C
T1 construct: host or cells: LNCaP
Method: LNCaP prostate cancer cell line obtained from the American Type Culture Collection (ATCC, Manassas, VA) was used for cell affinity studies. The cells were grown in a meilunbio RPMI 1640 medium (ATCC modified) supplemented with 10% fetal bovine serum and 1% streptomycin/penicillin (Thermo Fisher Scientific, USA) at 37 °C in a humidified 5% CO2 atmosphere. Two days (48 ± 2 h) prior to in vitro experiments, the cells were harvested using trypsin-ethylenediaminetetraacetic acid (EDTA; 0.25% trypsin, 0.02% EDTA) in PBS and centrifuged. The supernatant was disposed, and the cell pellet was resuspended in a culture medium, and LNCaP cells (150,000 cells/well) were counted with a hemocytometer and seeded in poly-L-lysine-coated 24-well plates used in cell binding studies. The cells were then allowed to grow at 37 °C for 48 h. PC3-PIP cells provided by Professor Xiaoyuan Chen (Singapore) require additional Puromycin (2 µg/ml) in addition to the appealed culture conditions. Detailed information regarding uptake and internalization experiments can be found in the previous report.
In order to determine the binding affinity, a competitive cell binding assay was performed. […] The total radioactivity in each well was measured with a gamma counter. […]

[3] = Radiochemical stability in PBS at 37 °C; type: physicochemical; conditions: 2 h
Method: (§3) The radiochemical purity of samples incubated in PBS at each time point was determined using RP-HPLC. For the samples in human serum, a pretreatment step was applied. Briefly, the human serum samples underwent precipitation with acetonitrile, and the radiochemical purity of each supernatant aliquot was determined using RP-HPLC after centrifugation for 5 min at 10,000 rpm. The experiments were performed in triplicate.

[4] = Radiochemical stability in human serum at 37 °C; type: in vitro ADME; conditions: 2 h
Method: as §3

LNCaP cells = experiment: Uptake and internalization in LNCaP cells; type: cell-based, human; conditions: 120 min incubation, normalized to 10^6 cells
Method: LNCaP prostate cancer cell line obtained from the American Type Culture Collection (ATCC, Manassas, VA) was used for cell affinity studies. […] The supernatant was disposed, and the cell pellet was resuspended in a culture medium, and LNCaP cells (150,000 cells/well) were counted with a hemocytometer and seeded in poly-L-lysine-coated 24-well plates used in cell binding studies. The cells were then allowed to grow at 37 °C for 48 h. PC3-PIP cells provided by Professor Xiaoyuan Chen (Singapore) require additional Puromycin (2 µg/ml) in addition to the appealed culture conditions.

T1 sequence (Q04609 whole entry): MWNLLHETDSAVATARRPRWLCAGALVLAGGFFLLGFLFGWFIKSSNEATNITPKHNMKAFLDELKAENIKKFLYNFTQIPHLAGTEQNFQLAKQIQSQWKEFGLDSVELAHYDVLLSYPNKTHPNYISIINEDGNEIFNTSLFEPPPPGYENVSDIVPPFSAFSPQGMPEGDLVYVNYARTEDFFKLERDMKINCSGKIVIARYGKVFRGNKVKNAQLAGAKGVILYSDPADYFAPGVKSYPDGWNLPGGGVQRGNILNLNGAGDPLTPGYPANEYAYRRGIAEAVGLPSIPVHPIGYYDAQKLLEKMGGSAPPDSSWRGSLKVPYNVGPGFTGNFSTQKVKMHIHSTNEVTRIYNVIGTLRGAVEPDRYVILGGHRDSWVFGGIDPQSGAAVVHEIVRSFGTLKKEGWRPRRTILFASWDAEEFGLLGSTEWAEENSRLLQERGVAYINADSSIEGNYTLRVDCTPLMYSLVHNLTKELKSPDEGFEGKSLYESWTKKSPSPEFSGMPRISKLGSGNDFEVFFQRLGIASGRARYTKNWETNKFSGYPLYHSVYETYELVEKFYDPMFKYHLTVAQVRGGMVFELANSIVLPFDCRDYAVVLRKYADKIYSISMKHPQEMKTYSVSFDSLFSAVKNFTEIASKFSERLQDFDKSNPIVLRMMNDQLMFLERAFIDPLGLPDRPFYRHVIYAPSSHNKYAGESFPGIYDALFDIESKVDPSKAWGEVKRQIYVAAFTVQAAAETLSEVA

SMILES: O=C(O)CC[C@H](NC(=O)N[C@@H](CCCCN(CC(=O)NCCOCCOCCOCCOCCNC(=O)CN1CCN(CC(=O)O)CCN(CC(=O)O)CCN(CC(=O)O)CC1)C(=O)C1c2ccccc2-c2ccccc21)C(=O)O)C(=O)O.[68Ga] [[^68Ga]Ga-PP4-WD]
- Radioactivity upon blocking with 2-PMPA (LNCaP tumors): substantially reduced radioactivity
- Outcome of blocking imaging with 2-PMPA (PC3-PIP tumors): in concordance with those observed in the LNCaP tumor model
- Renal uptake reduced by a factor compared to [68Ga]Ga-Flu-1 [1]: 40
- Renal uptake, fold less compared to [68Ga]Ga-Flu-1 [1]: tenfold
- Bone uptake ([1]; 0.5 h): 0.36±0.09 %ID/g
- Tumor uptake ([1]; 0.5 h): 33.45 ± 3.40 %ID/g
- Bone uptake ([1]; 1 h): 0.39±0.22 %ID/g
- Tumor uptake ([1]; 1 h): 39.28 ± 3.25 %ID/g
- Bone uptake ([1]; 2 h): 0.26±0.06 %ID/g
- Tumor uptake ([1]; 2 h): 25.75 ± 2.43 %ID/g
- Blood uptake ([2]; 30 min p.i.): 1.07±0.47 %ID/g
- Bone uptake ([2]; 30 min p.i.): 0.41±0.17 %ID/g
- Brain uptake ([2]; 30 min p.i.): 0.05±0.04 %ID/g
- Heart uptake ([2]; 30 min p.i.): 0.39±0.26 %ID/g
- Kidney uptake ([2]; 30 min p.i.): 17.85±4.66 %ID/g
- Liver uptake ([2]; 30 min p.i.): 0.36±0.14 %ID/g
- Lung uptake ([2]; 30 min p.i.): 0.99±0.22 %ID/g
- Muscle uptake ([2]; 30 min p.i.): 0.36±0.25 %ID/g
- Salivary uptake ([2]; 30 min p.i.): 0.46±0.16 %ID/g
- Small int (small intestine) uptake ([2]; 30 min p.i.): 0.33±0.15 %ID/g
- Spleen uptake ([2]; 30 min p.i.): 1.06±0.89 %ID/g
- Stomach uptake ([2]; 30 min p.i.): 0.44±0.18 %ID/g
- Tumor uptake ([2]; 30 min p.i.): 26.49±3.34 %ID/g
- Blood uptake ([2]; 60 min p.i.): 0.19±0.05 %ID/g
- Bone uptake ([2]; 60 min p.i.): 0.11±0.02 %ID/g
- Brain uptake ([2]; 60 min p.i.): 0.02±0.01 %ID/g
- Heart uptake ([2]; 60 min p.i.): 0.06±0.01 %ID/g
- Kidney uptake ([2]; 60 min p.i.): 2.96±1.04 %ID/g
- Liver uptake ([2]; 60 min p.i.): 0.16±0.03 %ID/g
- Lung uptake ([2]; 60 min p.i.): 0.23±0.05 %ID/g
- Muscle uptake ([2]; 60 min p.i.): 0.04±0.02 %ID/g
- Salivary uptake ([2]; 60 min p.i.): 0.17±0.09 %ID/g
- Small int (small intestine) uptake ([2]; 60 min p.i.): 0.1±0.04 %ID/g
- Spleen uptake ([2]; 60 min p.i.): 0.22±0.05 %ID/g
- Stomach uptake ([2]; 60 min p.i.): 0.09±0.02 %ID/g
- Tumor uptake ([2]; 60 min p.i.): 27.43 ± 1.81 %ID/g
- Blood uptake ([2]; 120 min p.i.): 0.17±0.04 %ID/g
- Bone uptake ([2]; 120 min p.i.): 0.08±0.03 %ID/g
- Brain uptake ([2]; 120 min p.i.): 0.01±0.01 %ID/g
- Heart uptake ([2]; 120 min p.i.): 0.06±0.03 %ID/g
- Kidney uptake ([2]; 120 min p.i.): 1.21±0.30 %ID/g
- Liver uptake ([2]; 120 min p.i.): 0.14±0.05 %ID/g
- Lung uptake ([2]; 120 min p.i.): 0.13±0.07 %ID/g
- Muscle uptake ([2]; 120 min p.i.): 0.04±0.03 %ID/g
- Salivary uptake ([2]; 120 min p.i.): 0.08±0.03 %ID/g
- Small int (small intestine) uptake ([2]; 120 min p.i.): 0.07±0.03 %ID/g
- Spleen uptake ([2]; 120 min p.i.): 0.13±0.10 %ID/g
- Stomach uptake ([2]; 120 min p.i.): 0.06±0.03 %ID/g
- Tumor uptake ([2]; 120 min p.i.): 19.42±4.00 %ID/g
- IC50 (PSMA): 8.06 ± 0.91 nM
- Radiochemical purity after incubation in PBS [3]: 97%
- Radiochemical purity after incubation in human serum [4]: 96.83 ± 0.87%
- Internalization in LNCaP cells (LNCaP cells): 9.36 ± 1.70%
- Uptake in LNCaP cells (LNCaP cells): 26.30 ± 2.06%
